# From patent US20250361234A1 (NICO THERAPEUTICS, INC., priority 2022, published 2025)
# Target: T1, full-length SARM1 (FL-SARM1) (Homo sapiens, UniProt Q6SZW1)
# T1 sequence (Q6SZW1 28-724): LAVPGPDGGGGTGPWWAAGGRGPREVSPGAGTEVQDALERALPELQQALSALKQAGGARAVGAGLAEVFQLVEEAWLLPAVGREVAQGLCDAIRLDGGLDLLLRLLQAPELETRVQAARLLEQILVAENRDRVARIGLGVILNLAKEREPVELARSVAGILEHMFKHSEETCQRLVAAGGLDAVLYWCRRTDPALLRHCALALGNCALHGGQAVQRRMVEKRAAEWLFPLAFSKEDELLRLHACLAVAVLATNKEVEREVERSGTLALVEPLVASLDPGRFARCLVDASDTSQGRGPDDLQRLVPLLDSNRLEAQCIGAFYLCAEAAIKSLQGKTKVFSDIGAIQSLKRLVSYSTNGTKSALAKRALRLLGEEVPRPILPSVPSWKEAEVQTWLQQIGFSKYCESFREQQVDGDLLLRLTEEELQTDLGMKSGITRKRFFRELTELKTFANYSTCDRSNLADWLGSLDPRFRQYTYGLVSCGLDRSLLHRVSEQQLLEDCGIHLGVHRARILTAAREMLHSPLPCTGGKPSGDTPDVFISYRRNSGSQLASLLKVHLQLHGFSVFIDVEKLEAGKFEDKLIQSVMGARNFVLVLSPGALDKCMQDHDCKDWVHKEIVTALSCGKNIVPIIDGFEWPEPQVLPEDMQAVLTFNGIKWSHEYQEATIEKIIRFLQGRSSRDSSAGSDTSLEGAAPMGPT
# Experiment: FL-SARM1 cellular lysate assay (NAD/NADH-Glo readout of remaining NAD+)
# Conditions: SARM1 cellular lysate from transfected HEK293T cells, NAD+ and NMN, 11 point curve
# Procedure: Preparation of full-length SARM1 (FL-SARM1) lysate: HEK293T cells (ATCC: CRL-3216) were grown on 150 mm TC-treated dishes to 80-90% confluency in complete DMEM (Thermo Fisher: 11965175) supplemented with 10% HI-FBS (VWR: 10802-772), 1× Pen/Strep (Thermo Fisher: 15140122), 1× NEAA (Thermo Fisher: 1140050), 1× glutamax (Thermo Fisher: 35050061), and 1 mM sodium pyruvate (Thermo Fisher: 11360070)) at 37° C. and 5% CO2. One hour prior to transfection, the media was replaced with fresh, 37° C. complete DMEM (20 mL per one 150 mm dish) supplemented with additional 10 mM glucose (Alfa Aesar AAJ60067EQE). Per one 150 mm dish, 30 μg FL-SARM1 (SEQ. ID. 1; cloned in-house) plasmid was dissolved in 1 mL DMEM at ambient temperature and were mixed by inverting the tube 8-10 times. 90 μL of GenJet™ in vitro DNA transfection reagent (Ver2) was dissolved in 1 mL DMEM at ambient temperature and were mixed by inverting the tube 8-10 times. The plasmid and transfection agent solutions were combined, mixed by 8-10 inversions and incubated for 10 minutes at ambient temperature. 2 mL of this transfection mixture was added to each dish containing HEK293T cells as prepared above followed by a gentle mixing of 4-5 horizontal rotations. The dishes were incubated at 37° C. and 5% CO2 for 24 h. The dishes were removed from the incubator, the medium was aspirated and the cells were scraped off using cell scrapers in ice-cold 1× PBS (5 mL/dish, Thermo Fisher Scientific 10010023). The collected cells were centrifuged at 300 g for 5 minutes at 4° C. The supernatant was aspirated and the pellet was frozen at −80° C. until needed. The cell pellet from 30 dishes was dissolved in 30 mL 1× PBS supplemented with 4 tablets of Complete, Mini EDTA-free protease inhibitor cocktail at 4° C. This mixture was sonicated on ice for 10 minutes at 50% amplitude with a 1 second on/1 second off interval using a Model 120 sonicator (Thermo Fisher Scientific, FB120110). The lysate was centrifuged at 16000 g for 10 minutes at 4° C.
# To a white 384-well Proxiplate (PerkinElmer, PE-6008280) was added 50 nL/well of a DMSO solution containing test compounds followed by 7.5 mL/well of a 0.067 mg/mL solution of SARM1 cellular lysate in reaction buffer (DPBS containing CHAPSO (0.1%) and fatty acid free BSA (0.032%)). The plate was centrifuged for 1 minute at 1000 RPM and then placed in an incubator at 23° C. for 15 minutes. To the wells were added 2.5 mL/well of a solution containing 40 mM NAD^+ and 4 mM NMN in reaction buffer. The plate was centrifuged for 1 min at 1000 RPM, the plate was sealed and placed in an incubator at 23° C. for 3.5 hours before adding 3.5 mL/well of NAD/NADH-Glo™ solution (preparation as described by Promega using the extended detection protocol). The plate was centrifuged for 1 minute at 1000 RPM and then incubated at 23° C. for 20 minutes. 1 mL/well of a 3.625 mM solution of menadione in DMSO was added and the plate was centrifuged for 1 minute at 1000 RPM. […] Percent inhibition was calculated as follows:
# IC50 values were calculated from an 11 point curve using ½ log dilutions using a four-parameter logistic regression curve fit.
SMILES,IC50 (Activity (μM)),IC50 (Activity)
"Cc1ccc(NC(=O)N2C[C@H]3C[C@@H]2CN3c2ncccn2)cc1-c1cncc(F)c1 [Example 19, (1R,4R)-N-(3-(5-fluoropyridin-3-yl)-4-methylphenyl)-5-(pyrimidin-2-yl)-2,5-diazabicyclo[2.2.1]heptane-2-carboxamide]",19.8 µM,> 10 µM
"Cc1nnc([C@]23C[C@H](C)C[C@H](C2)N3C(=O)Nc2ccc(C)c(-c3cncc(F)c3)c2)o1 (single isomer, unassigned) [Example 127, cis-N-(3-(5-fluoropyridin-3-yl)-4-methylphenyl)-3-methyl-1-(5-methyl-1,3,4-oxadiazol-2-yl)-6-azabicyclo[3.1.1]heptane-6-carboxamide]",0.01 µM,0.0001 to 1 µM
"C[C@H]1CC2C[C@@H](C1)N2C(=O)Nc1ccc(Cl)c(-c2cncc(F)c2)c1 (single isomer, unassigned) [Example 80, cis-N-(4-chloro-3-(5-fluoropyridin-3-yl)phenyl)-3-methyl-6-azabicyclo[3.1.1]heptane-6-carboxamide]",0.07 µM,0.0001 to 1 µM
"Cc1ccc(NC(=O)N2C3CCCC2C3)cc1-c1cncc(F)c1 [Example 87, N-(3-(5-fluoropyridin-3-yl)-4-methylphenyl)-6-azabicyclo[3.1.1]heptane-6-carboxamide]",0.1 µM,0.0001 to 1 µM
"Cc1ccc(NC(=O)N2C3CC[C@H](C(=O)N(C)C)[C@@H]2C3)cc1-c1cncc(F)c1 [Example 33, cis-N^6-(3-(5-fluoropyridin-3-yl)-4-methylphenyl)-N^2,N^2-dimethyl-6-azabicyclo[3.1.1]heptane-2,6-dicarboxamide]",32.9 µM,> 10 µM
"Cc1ccc(NC(=O)C2CCCN2C(=O)OC(C)(C)C)cc1-c1cncc(F)c1 (racemic) [Example 105, tert-butyl 2-[[3-(5-fluoropyridin-3-yl)-4-methylphenyl]carbamoyl]pyrrolidine-1-carboxylate]",13.5 µM,> 10 µM
"Cc1ccc(NC(=O)C2C3CC2CN(CC(F)(F)F)C3)cc1-c1cncc(F)c1 (stereo not drawn) [Example 101, N-[3-(5-fluoropyridin-3-yl)-4-methylphenyl]-3-(2,2,2-trifluoroethyl)-3-azabicyclo[3.1.1]heptane-6-carboxamide]",0.8 µM,0.0001 to 1 µM
"O=C(Nc1ccc(C2CC2)c(-c2cncc(F)c2)c1)N1C2CCCC1C2 [Example 66, N-(4-cyclopropyl-3-(5-fluoropyridin-3-yl)phenyl)-6-azabicyclo[3.1.1]heptane-6-carboxamide]",2 µM,1 to 10 µM
"Cc1nnc([C@]23C[C@H](C)C[C@H](C2)N3C(=O)Nc2cc(-c3cncc(F)c3)c(Cl)cc2F)o1 (single isomer, unassigned) [Example 133, cis-N-(4-chloro-2-fluoro-5-(5-fluoropyridin-3-yl)phenyl)-3-methyl-1-(5-methyl-1,3,4-oxadiazol-2-yl)-6-azabicyclo[3.1.1]heptane-6-carboxamide]",38 µM,> 10 µM
"Cc1ccc(NC(=O)N2[C@H](C)CCC[C@H]2C)cc1-c1cncc(F)c1 [Example 22, (2R,6R)-N-(3-(5-fluoropyridin-3-yl)-4-methylphenyl)-2,6-dimethylpiperidine-1-carboxamide]",1.2 µM,1 to 10 µM
"Cc1ncc(-c2cc(NC(=O)N3C4CCCC3C4)ccc2C)cn1 [Example 85, N-(4-methyl-3-(2-methylpyrimidin-5-yl)phenyl)-6-azabicyclo[3.1.1]heptane-6-carboxamide]",1.8 µM,1 to 10 µM
"Cc1ccc(NC(=O)OC2CCC2)cc1-c1cccnc1 [Example 129, cyclobutyl N-(4-methyl-3-pyridin-3-ylphenyl)carbamate]",30.9 µM,> 10 µM
"Cc1ccc(NC(=O)N2C[C@@H]3C[C@H]2C[C@H]3OC(F)F)cc1-c1cncc(F)c1 (racemic) [Example 31, cis-5-(difluoromethoxy)-N-(3-(5-fluoropyridin-3-yl)-4-methylphenyl)-2-azabicyclo[2.2.1]heptane-2-carboxamide]",28.6 µM,> 10 µM
"Cc1ccc(NC(=O)[C@H]2C[C@](C#N)(C3CC3)C2)cc1-c1cncc(F)c1 [Example 107, cis-3-cyano-3-cyclopropyl-N-[3-(5-fluoropyridin-3-yl)-4-methylphenyl]cyclobutane-1-carboxamide]",38.9 µM,> 10 µM
"COc1ccc(-c2cc(NC(=O)N3C4CCCC3C4)ccc2C)cn1 [Example 67, N-(3-(6-methoxypyridin-3-yl)-4-methylphenyl)-6-azabicyclo[3.1.1]heptane-6-carboxamide]",0.4 µM,0.0001 to 1 µM
"Cc1ccc(NC(=O)N2C3CCC2COC3)cc1-c1cncc(F)c1 [Example 94, N-[3-(5-fluoropyridin-3-yl)-4-methylphenyl]-3-oxa-8-azabicyclo[3.2.1]octane-8-carboxamide]",2.8 µM,1 to 10 µM
"Cc1cncc(-c2cc(NC(=O)N3C4CCCC3C4)ccc2C)c1 [Example 115, N-[4-methyl-3-(5-methylpyridin-3-yl)phenyl]-6-azabicyclo[3.1.1]heptane-6-carboxamide]",0.1 µM,0.0001 to 1 µM
"Cc1ccc(NC(=O)N2C3CCCC2C3)cc1-c1cncc(OC(F)F)c1 [Example 48, N-(3-(5-(difluoromethoxy)pyridin-3-yl)-4-methylphenyl)-6-azabicyclo[3.1.1]heptane-6-carboxamide]",0.1 µM,0.0001 to 1 µM
"Cc1nnc([C@]23C[C@H](C)C[C@H](C2)N3C(=O)Nc2cc(-c3cncc(F)c3)c(C(F)(F)F)cc2F)o1 (single isomer, unassigned) [Example 135, cis-N-[2-fluoro-5-(5-fluoro-3-pyridinyl)-4-(trifluoromethyl)phenyl]-3-methyl-1-(5-methyl-1,3,4-oxadiazol-2-yl)-6-azabicyclo[3.1.1]heptane-6-carboxamide]",0.03 µM,0.0001 to 1 µM
"Cc1ccc(NC(=O)N2CC3CC2c2ccccc23)cc1-c1cncc(F)c1 (stereo not drawn) [Example 95, N-[3-(5-fluoropyridin-3-yl)-4-methylphenyl]-9-azatricyclo[6.2.1.02,7]undeca-2,4,6-triene-9-carboxamide]",0.2 µM,0.0001 to 1 µM
"Cc1ccc(NC(=O)N2[C@@H]3C[C@H](C)C[C@H]2C3)cc1-c1cncc(F)c1 [Example 84, cis-N-(3-(5-fluoropyridin-3-yl)-4-methylphenyl)-3-methyl-6-azabicyclo[3.1.1]heptane-6-carboxamide]",0.007 µM,0.0001 to 1 µM
"Cc1ccc(NC(=O)N2C[C@@H]3C[C@H]2C[C@@H]3C#N)cc1-c1cncc(F)c1 (relative stereo) [Example 24, trans-5-cyano-N-(3-(5-fluoropyridin-3-yl)-4-methylphenyl)-2-azabicyclo[2.2.1]heptane-2-carboxamide]",3.3 µM,1 to 10 µM
"O=C(Nc1ccc(Cl)c(-c2cncc(F)c2)c1)N1C2C[C@H](OC(F)F)C[C@H]1C2 [Example 55, trans-N-(4-chloro-3-(5-fluoropyridin-3-yl)phenyl)-3-(difluoromethoxy)-6-azabicyclo[3.1.1]heptane-6-carboxamide]",0.3 µM,0.0001 to 1 µM
"Cc1ccc(NC(=O)N2[C@H](C)CCC[C@@H]2C)cc1-c1cncc(F)c1 [Example 21, cis-N-(3-(5-fluoropyridin-3-yl)-4-methylphenyl)-2,6-dimethylpiperidine-1-carboxamide]",1.5 µM,1 to 10 µM
